Measurements: publication PMC3584069, “The Interaction of the Chemotherapeutic Drug Chlorambucil with Human Glutathione Transferase A1-1: Kinetic and Structural Analysis” (PLoS ONE, 2013)

What was measured:
[1] = biological target: T1, human glutathione transferase A1-1 (hGSTA1-1) (Homo sapiens, UniProt P08263); assay: X-ray crystal structure (GSH moiety of the GSH–CBL adduct); initial velocity kinetics with GSH as variable substrate; type: binding
T1 construct: gene GSTA1; recombinant purified hGSTA1-1 homodimer
T1 sequence (P08263 2-222): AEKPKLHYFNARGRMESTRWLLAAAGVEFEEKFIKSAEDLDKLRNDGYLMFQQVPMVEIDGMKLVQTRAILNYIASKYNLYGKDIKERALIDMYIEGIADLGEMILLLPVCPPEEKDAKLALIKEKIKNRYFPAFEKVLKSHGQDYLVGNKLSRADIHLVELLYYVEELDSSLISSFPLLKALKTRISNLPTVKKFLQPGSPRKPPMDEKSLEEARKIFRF

[2] = biological target: T1, human glutathione transferase A1-1 (hGSTA1-1); assay: irreversible enzyme inactivation kinetics in absence of GSH (apparent KD, fast phase), MALDI-TOF MS of CBL-modified subunit, DTNB cysteine titration; also a substrate in presence of GSH; type: biochemical; details: read-out: Kd
[3] = biological target: the molecule itself; assay: crystal structure; hGSTA1-1 (19.7 mg/mL) incubated with CBL at 1:3 molar ratio; 17-20% PEG 2000, 0.1 M Tris-HCl pH 7.5, 0.1 mM beta-mercaptoethanol, vapor diffusion at 20°C; 2.1 Å; monomers A and B in the model

**Q.** `N[C@@H](CCC(=O)N[C@@H](CS)C(=O)NCC(=O)O)C(=O)O` [GSH] was tested. Which “X-ray crystal structure (GSH moiety of the GSH-CBL adduct); initial velocity kin” value [1] did it give?
**A.** Difference Fourier electron density maps indicate the presence of a GSH moiety in the G-site of the enzyme

**Q.** For `O=C(O)CCCc1ccc(N(CCCl)CCCl)cc1` [chlorambucil], which KI (inactivation) [2] is on record?
**A.** 2950 ± 500 µM

B1: human glutathione transferase A1-1 (enzyme)
chain: KPKLHYFNARGRMESTRWLLAAAGVEFEEKFIKSAEDLDKLRNDGYLMFQQVPMVEIDGMKLVQTRAILNYIASKYNLYGKDIKERALIDMYIEGIADLGEMILLLPVCPPEEKDAKLALIKEKIKNRYFPAFEKVLKSHGQDYLVGNKLSRADIHLVELLYYVEELDSSLISSFPLLKALKTRISNLPTVKKFLQPGSPRKPPMDEKSLEEARKIF
notes: glutathione transferase A1 subunit, human; the crystal model holds residues 4-220 (monomer A) and 3-221 (monomer B, without 112-115); Homodimer; MALDI-TOF of the unmodified subunit: m/z 25,482; also called hGSTA1-1; GSTA1-1; source: recombinant
**Q.** Does B1 bind [3]?
**A.** binds
